This is an account of results in paper PMC8388771, “Cationic Peptidomimetic Amphiphiles Having a N-Aryl- or N-Naphthyl-1,2,3-Triazole Core Structure Targeting Clostridioides (Clostridium) difficile: Synthesis, Antibacterial Evaluation, and an In Vivo C. difficile Infection Model” (Antibiotics, 2021).

Data set [1] in a line: Cytotoxicity (CC50) assay by CO-ADD. In kind it is cell-based, human. To be noted: human, HEK293 cells (ATCC CRL-1573); Table 1; cytotoxicity on HEK293 cells, tested at ≤32 µg/mL. The text has this: (§1) The N-arytriazole and N-naphthyltriazole peptidomimetics were subjected to antimicrobial screening. […] Vancomycin, colistin, fluconazole, and tamoxifen were used as positive controls (see Table 1 for details).
(§2) Secondary screening (MRSA and Gram-negative bacteria) and cytotoxicity assay–performed by the Community for Open Antimicrobial Drug Discovery (CO-ADD). Samples were provided to CO-ADD [29] for antimicrobial screening by whole cell growth inhibition assays.
Cytotoxicity Assay. These were performed as described previously.

A further data set has as its system S. aureus ATCC 29213. The experiment in a line: Primary MIC assay, S. aureus ATCC 29213. In kind it is cell-based. The settings on record: Staphylococcus aureus. As to the method: as §1
(§3) Primary screening (Gram-positive bacteria). Primary MIC assays were performed as described by the Clinical and Laboratory Standards Institute for aerobic and anaerobic bacteria. MIC values for vancomycin were within acceptable QC ranges.

Data set [2] relates to E. coli ATCC 25922. In words: CO-ADD MIC assay, E. coli ATCC 25922. The class given is cell-based. To be noted: for MIC: Escherichia coli, ATCC25922, Table S1.
Description: as §1, §2
(§4) Bacterial Inhibition–MIC Assay. These were performed as described previously.

For data set [3], the system named is E. coli ATCC 25922. In words: Primary MIC assay, E. coli ATCC 25922. In kind it is cell-based. The settings on record: for MIC: Escherichia coli.
A further data set concerns E. faecalis ATCC 29212. The experiment in a line: Primary MIC assay, E. faecalis ATCC 29212. In kind it is cell-based, Enterococcus faecalis. To be noted: Enterococcus faecalis. As to the method:
as §1, §3

For the next data set, the system named is S. aureus NCTC 10442. The experiment in a line: Primary MIC assay, S. aureus NCTC 10442 (MRSA). The class given is cell-based. To be noted: Staphylococcus aureus. As to the method: as §1, §3
In data set [4] the test system is K. pneumoniae ATCC 700603. The experiment in a line: CO-ADD MIC assay, K. pneumoniae ATCC 700603. In kind it is cell-based. The settings on record: for MIC: Klebsiella pneumoniae, ATCC700603, Table S1, multi-drug resistant.
Description: as §1, §2, §4

Another data set deals with human erythrocytes. In words: Hemolysis assay, HC50 determination. In kind it is cell-based. As to the method:
Hemolysis assay (human erythrocytes)–HC50 determination. These were performed as described previously.

The next data set deals with C. difficile ATCC 700057. The experiment in a line: Primary MIC assay, C. difficile ATCC 700057. In kind it is cell-based, Clostridioides difficile. The settings on record: Clostridioides difficile. As to the method: as §1, §3
In another data set the test system is S. aureus ATCC 43300. In words: CO-ADD MIC assay, S. aureus ATCC 43300 (MRSA). In kind it is cell-based. To be noted: Staphylococcus aureus, read-out: MIC S. aureus ATCC 43300.
Description: as §1, §2, §4

The next data set relates to P. aeruginosa ATCC 27853. In words: CO-ADD MIC assay, P. aeruginosa ATCC 27853. In kind it is cell-based. To be noted: for MIC: Pseudomonas aeruginosa, ATCC27853, Table S1.
Description: as §1, §2, §4

The test system of a further data set is C. albicans ATCC 90028. The experiment in a line: CO-ADD MIC assay, C. albicans ATCC 90028. In kind it is cell-based. The settings on record: Candida albicans, ATCC90028, Table S1.
Description: as §1, §2

The subject of another data set is A. baumannii ATCC 19606. In words: CO-ADD MIC assay, A. baumannii ATCC 19606. The class given is cell-based. To be noted: for MIC: Acinetobacter baumannii, ATCC19606, Table S1.
Description: as §1, §2, §4

In the next data set the test system is C. difficile 132 (RT027). In words: Primary MIC assay, C. difficile 132 (RT027). In kind it is cell-based, Clostridioides difficile. The settings on record: Clostridioides difficile, read-out: MIC C. difficile 132 (RT027). As to the method:
as §1, §3

Another data set concerns S. pneumoniae ATCC 49619. The experiment in a line: Primary MIC assay, S. pneumoniae ATCC 49619. In kind it is cell-based, Streptococcus pneumoniae. To be noted: Streptococcus pneumoniae. As to the method:
as §1, §3

The test system of data set [5] is Cryptococcus neoformans var. grubii ATCC 208821. The experiment in a line: CO-ADD MIC assay, C. neoformans var. grubii ATCC 208821. In kind it is cell-based. The settings on record: Cryptococcus neoformans, ATCC208821, Table S1.
Description: as §1, §2

Setting [6] is: ATCC29213, Table 1, read-out: MIC S. aureus ATCC 29213.
[7] abbreviates: ATCC25922, Table 1, read-out: MIC E. coli ATCC 25922.
[8] abbreviates: ATCC29212, Table 1, read-out: MIC E. faecalis ATCC 29212.
Setting [9] is: Table 1, MRSA, read-out: MIC S. aureus NCTC 10442.
Where [10] appears, read: Table 1, lysis of human erythrocytes.
[11] abbreviates: Table S1, footnote says lysis of sheep erythrocytes.
Setting [12] is: ATCC700057, Table 1, read-out: MIC C. difficile ATCC 700057.
The mark [13] stands for this setting: ATCC49619, Table 1, read-out: MIC S. pneumoniae ATCC 49619.

In brackets after ≈: the same amount, converted by molar mass. Read-outs that look alike come from different tables or passages of the source. A value given as a limit tells only on which side of the number the result lay.

The compound `CC(C)CCc1cnnn1-c1c(OCC(=O)N[C@H](CCCCN)C(=O)N[C@H](CCCNC(=N)N)Cn2cc(Cc3ccccc3)nn2)ccc2ccccc12.Cl.Cl` [Compound 45] registered a CC50 in data set [1] of more than 32 µg/mL. Also, the MIC in the data set with S. aureus ATCC 29213 (setting [6]) was 16 µg/mL; against E. coli ATCC 25922 [2] it was 32 µg/mL; in the data set with E. coli ATCC 25922 [3] (setting [7]), 128 µg/mL; with E. faecalis ATCC 29212 (setting [8]), 64 µg/mL; in the data set on S. aureus NCTC 10442 (setting [9]), 16 µg/mL; in data set [4], more than 32 µg/mL. The MIC in the data set with C. difficile ATCC 700057 (setting [12]) is 128 µg/mL; in the data set on S. aureus ATCC 43300 (Table S1, MRSA, CO-ADD) it was 16 µg/mL; against P. aeruginosa ATCC 27853 it was 32 µg/mL; against C. albicans ATCC 90028, more than 32 µg/mL; against A. baumannii ATCC 19606, more than 32 µg/mL; with C. difficile 132 (RT027) (Table 1), 128 µg/mL. Besides, in the data set on S. pneumoniae ATCC 49619 (setting [13]), the MIC amounted to 4 µg/mL. The HC50 with human erythrocytes (setting [10]) and in the data set with human erythrocytes (setting [11]) was more than 32 µg/mL throughout.
As for `Cl.Cl.N=C(N)NCCC[C@H](Cn1cc(Cc2ccccc2)nn1)NC(=O)[C@@H](CCCCN)NC(=O)COc1ccccc1-c1cn(Cc2ccccc2)nn1` [Compound 46], the CC50 in data set [1] was more than 32 µg/mL. Further, the MIC in the data set on S. aureus ATCC 29213 (setting [6]) was 32 µg/mL; in the data set with E. coli ATCC 25922 [2], more than 32 µg/mL; in the data set on E. coli ATCC 25922 [3] (setting [7]), 128 µg/mL; in the data set with E. faecalis ATCC 29212 (setting [8]), 64 µg/mL; in the data set with S. aureus NCTC 10442 (setting [9]) it was 32 µg/mL; in data set [4], more than 32 µg/mL. Moreover, the MIC in the data set with C. difficile ATCC 700057 (setting [12]) is 128 µg/mL; with S. aureus ATCC 43300 (Table S1, MRSA, CO-ADD), 16 µg/mL; in the data set on P. aeruginosa ATCC 27853, more than 32 µg/mL; against C. albicans ATCC 90028, 32 µg/mL; in the data set with A. baumannii ATCC 19606, more than 32 µg/mL; in the data set with C. difficile 132 (RT027) (Table 1), 128 µg/mL. Besides, the MIC in the data set on S. pneumoniae ATCC 49619 (setting [13]) turned out to be 16 µg/mL. Further, the HC50 with human erythrocytes (setting [10]) and with human erythrocytes (setting [11]) was more than 32 µg/mL throughout.
Turning to `OC(Cn1cncn1)(Cn1cncn1)c1ccc(F)cc1F` [flucona-zole, fluconazole, reference compound], the MIC amounted to 0.125 µg/mL (≈ 0.408 µM) against C. albicans ATCC 90028 and 0.25 µg/mL (≈ 0.816 µM) in data set [5].
Take `CC/C(=C(\c1ccccc1)c1ccc(OCCN(C)C)cc1)c1ccccc1` [tamoxifen, reference compound]: it took 13.1 µg/mL (≈ 35.3 µM) to reach half-maximal cytotoxicity in [1] (CC50).
Consider `CN[C@H](CC(C)C)C(=O)N[C@H]1C(=O)N[C@@H](CC(N)=O)C(=O)N[C@H]2C(=O)N[C@H]3C(=O)N[C@H](C(=O)N[C@H](C(=O)O)c4cc(O)cc(O)c4-c4cc3ccc4O)[C@H](O)c3ccc(c(Cl)c3)Oc3cc2cc(c3O[C@@H]2O[C@H](CO)[C@@H](O)[C@H](O)[C@H]2O[C@H]2C[C@](C)(N)[C@H](O)[C@H](C)O2)Oc2ccc(cc2Cl)[C@H]1O` [vanc, vancomycin, reference compound], for which the MIC was 1 µg/mL (≈ 0.69 µM) with S. aureus ATCC 29213 (ATCC29213, read-out: MIC S. aureus ATCC 29213); more than 16 µg/mL with E. coli ATCC 25922 [3] (ATCC25922, read-out: MIC E. coli ATCC 25922); 4 µg/mL (≈ 2.76 µM) in the data set with E. faecalis ATCC 29212 (ATCC29212, read-out: MIC E. faecalis ATCC 29212); 1 µg/mL (≈ 0.69 µM) with S. aureus NCTC 10442 (MRSA / NCTC 10442 / NCTC 104422, read-out: MIC S. aureus NCTC 104422); 1 µg/mL (≈ 0.69 µM) in the data set on S. aureus NCTC 10442 (read-out: MIC S. aureus NCTC 10442); 0.5 µg/mL (≈ 0.345 µM) in the data set on C. difficile ATCC 700057 (ATCC700057, read-out: MIC C. difficile ATCC 700057). Also, the minimal inhibitory concentration (MIC) amounted to 1 µg/mL (≈ 0.69 µM) in the data set with S. aureus ATCC 43300; 0.5 µg/mL (≈ 0.345 µM) in the data set with C. difficile 132 (RT027); 1 µg/mL (≈ 0.69 µM) with S. pneumoniae ATCC 49619 (ATCC49619, read-out: MIC S. pneumoniae ATCC 49619).
colistin [reference compound]: the “MIC E. coli ATCC 25922” value with E. coli ATCC 25922 [2] (Table S1) and in the data set on E. coli ATCC 25922 [3] (Table 1) was 0.125 µg/mL in each case. Further, the “MIC K. pneumoniae ATCC 700603” value in data set [4] (Table S1, multi-drug resistant) came to 0.25 µg/mL. For the same compound, the “MIC P. aeruginosa ATCC 27853” value with P. aeruginosa ATCC 27853 (Table S1) was found to be 0.25 µg/mL. Further, the “MIC A. baumannii ATCC 19606” value in the data set on A. baumannii ATCC 19606 (Table S1) was determined as 0.25 µg/mL.
